# Experimental data from patent US9790169B2, “IDO inhibitors” (BRISTOL-MYERS SQUIBB COMPANY, priority 2015, dated 2017).
# Molecular target: human IDO1 (Homo sapiens, UniProt P14902)
# Experiment: Assessment of human IDO-1 inhibitory activity in HEK cells (human IDO1/HEK293 cells, kynurenine read-out with Ehrlich reagent, absorbance 490 nm)
# Assay type: cell-based
# Design: expressed in transfected cells
# Details: HEK Human IDO-1 cellular assay
# In short: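 Kynurenine output from stably IDO1-transfected HEK293 cells (10,000/well, phenol red-free RPMI, 10% FBS) after 20 h compound exposure at 37 °C. The reaction was stopped with 0.2% TCA and heated 30 min at 50 °C, then the supernatant was mixed with Ehrlich reagent and read at 490 nm. IC50 was set against DMSO and a 500 nM reference standard as 0 and 100% inhibition.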
# human IDO1, sequence (P14902 whole entry): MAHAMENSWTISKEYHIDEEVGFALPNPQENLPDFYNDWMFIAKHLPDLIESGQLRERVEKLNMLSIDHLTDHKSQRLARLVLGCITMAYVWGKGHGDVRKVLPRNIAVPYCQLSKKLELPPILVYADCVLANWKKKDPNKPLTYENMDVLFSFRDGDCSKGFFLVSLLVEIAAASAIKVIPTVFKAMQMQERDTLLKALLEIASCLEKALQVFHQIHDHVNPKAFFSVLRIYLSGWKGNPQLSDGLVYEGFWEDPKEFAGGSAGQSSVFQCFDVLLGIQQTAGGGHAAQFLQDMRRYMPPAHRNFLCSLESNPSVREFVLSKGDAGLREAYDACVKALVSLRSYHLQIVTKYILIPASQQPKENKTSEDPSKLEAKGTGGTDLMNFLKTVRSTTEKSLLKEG
row,SMILES,IC50 [nM]
1,"CC[C@H](CC(=O)O)c1ccc(N2CCOC[C@@H]2C(C)C)c(NC(=O)Nc2ccc(Cl)cc2F)c1 (single isomer, unassigned) [Example 86]",< 50
2,"CCC(CC(=O)O)c1cc(F)c(N(CC(C)C)CC(C)C)c(Nc2cnc(OC)nc2)c1 (single isomer, unassigned) [Example 104, 3-(4-(diisobutylamino)-3-fluoro-5-((2-methoxypyrimidin-5-yl)amino)phenyl) pentanoic acid]",< 5
3,"CC[C@@H](CC(=O)O)c1ccc(N2CCOC[C@@H]2C(C)C)c(NC(=O)Nc2ccc(C)cc2)c1 (single isomer, unassigned) [Example 74]",> 50
4,"Cc1cc(NC(=O)Nc2cc(C(CC(=O)O)C3CC3)ccc2N(CC(C)C)C2CCOCC2)no1 (racemic) [Example 1200, (+/−)-3-Cyclopropyl-3-(4-(isobutyl(tetrahydro-2H-pyran-4-yl)amino)-3-(3-(5-methylisoxazol-3-yl)ureido)phenyl)propanoic acid]",< 50
5,"COCC(CC(=O)O)c1ccc(N(CC(C)C)C2CCCCC2)c(NC(=O)Nc2cncnc2)c1 (racemic) [Example 990, (+/−)-3-(4-(Cyclohexyl(isobutyl)amino)-3-(3-(pyrimidin-5-yl)ureido)phenyl)-4-methoxybutanoic acid]",< 50
6,"CC[C@H](CC(=O)O)c1ccc(N2CCC[C@@H]2C(C)(C)O)c(Nc2cnc(OCC3CC3)nc2)c1 (single isomer, unassigned) [Example 842]",> 50
7,"CCN(c1ccc([C@@H](COC)CC(=O)O)cc1NC(=O)Nc1ccc(OC)nc1)C1CCOCC1 (single isomer, unassigned) [Example 426]",> 50
8,"Cc1ccc(CC(=O)Nc2cc(C(CC(=O)O)C(C)C)ccc2N(C)C(C)(C)C)cc1 (single isomer, unassigned) [1007-1]",> 50
9,"CCOc1ccc(NC(=O)Nc2cc(C(CC)CC(=O)O)ccc2N2CCC[C@H]2C(C)(C)O)cc1 (single isomer, unassigned) [Example 826]",> 50
10,"CCC(CC(=O)O)c1ccc(N(CC2CC2)C2CCOCC2)c(Nc2ccc(C#N)cc2)c1 (single isomer, unassigned) [Example 706, 3-(3-((4-cyanophenyl)amino)-4-((cyclopropylmethyl) (tetrahydro-2H-pyran-4-yl)amino)phenyl)pentanoic acid]",< 5
11,"CCCOc1ncc(Nc2cc(C(CC)CC(=O)O)ccc2N(CC(C)C)C2CCCCC2)cn1 (single isomer, unassigned) [Example 647, 3-(4-(cyclohexyl(isobutyl)amino)-3-((2-propoxypyrimidin-5-yl)amino)phenyl)pentanoic acid]",< 5
12,"CCN(c1ccc(C(C)(C)CC(=O)O)cc1NC(=O)Nc1ccc(C)cc1)C1CCOCC1 [Example 167, 3-(4-(Ethyl(tetrahydro-2H-pyran-4-yl)amino)-3-(3-(p-tolyl)ureido)phenyl)-3-methylbutanoic acid]",< 50
13,"CC[C@@H](CC(=O)O)c1ccc(N2CCOC[C@@H]2C(C)C)c(Nc2ccc(Cl)cc2)c1 (single isomer, unassigned) [Example 78]",< 50
14,"CCC(CC(=O)O)c1ccc(N2CCOC[C@H]2C(C)C)c(NC(=O)Nc2ccc(C)cc2)c1 (single isomer, unassigned) [Example 895]",> 50
15,"CC[C@H](CC(=O)O)c1ccc(N(CC)C2CCOCC2)c(NC(=O)Nc2ccc(Cl)cc2)c1 (single isomer, unassigned) [Example 531]",< 5
16,"CCC(CC(=O)O)c1cc(NC(=O)Nc2ccc(C)cc2F)c(N(CC(C)C)C2CCCCC2)cc1F (racemic) [Example 1119, (±)-3-(4-(Cyclohexyl(isobutyl)amino)-2-fluoro-5-(3-(2-fluoro-4-methylphenyl)ureido)phenyl)pentanoic acid]",< 5
17,"CC[C@H](CC(=O)O)c1ccc(N2CCC[C@H]2C(C)(C)O)c(NC(=O)Nc2ccc(C)cc2)c1 (single isomer, unassigned) [Example 767]",> 50
18,"CCc1ccc(Nc2cc(C(CC)CC(=O)O)ccc2N(CC(C)C)C2CCCCC2)cc1 (single isomer, unassigned) [Example 309, 3-(4-(cyclohexyl(isobutyl)amino)-3-((4-ethylphenyl)amino)phenyl)pentanoic acid]",< 5
19,"CCN(c1ccc(C(C)(C)CC(=O)O)cc1Nc1ccc(F)cc1)C1CCC(C)(O)CC1 (centres unmarked) [Example 2, 3-(4-(ethyl(4-hydroxy-4-methylcyclohexyl)amino)-3-((4-fluorophenyl)amino)phenyl)-3-methylbutanoic acid]",< 5
20,"CCOc1ccc(NC(=O)Nc2cc(C(CC)CC(=O)O)c(F)cc2N(CC(C)C)CC(C)C)c(F)c1 (single isomer, unassigned) [Example 1138, 3-(4-(Diisobutylamino)-5-(3-(4-ethoxy-2-fluorophenyl)ureido)-2-fluorophenyl)pentanoic acid]",< 5
21,"CCOc1ccc(NC(=O)Nc2cc(C(CC(=O)O)C3CC3)ccc2N(CC(C)C)C2CCOCC2)cc1 (single isomer, unassigned) [Example 1205 Enantiomer 1, 3-Cyclopropyl-3-(3-(3-(4-ethoxyphenyl)ureido)-4-(isobutyl(tetrahydro-2H-pyran-4-yl)amino)phenyl)propanoic acid]",< 50
22,"CC(C)CN(c1ccc(C(CC(=O)O)C2CC2)cc1NC(=O)Nc1ccc(Cl)cc1F)C1CCOCC1 (racemic) [Example 1198, (+/−)-3-(3-(3-(4-Chloro-2-fluorophenyl)ureido)-4-(isobutyl(tetrahydro-2H-pyran-4-yl)amino)phenyl)-3-cyclopropylpropanoic acid]",< 5
23,"CCOc1ccc(NC(=O)Nc2cc([C@@H](COC)CC(=O)O)ccc2N(CC)C2CCOCC2)cc1 (single isomer, unassigned) [Example 432]",> 50
24,"CC[C@@H](CC(=O)O)c1ccc(N(CC)C2CCOCC2)c(Nc2ccc(OCC3CC3)cc2)c1 (single isomer, unassigned) [Example 476]",< 5
25,"CCC(CC(=O)O)c1ccc(N(CC2CC2)C2CCOCC2)c(NC(=O)Nc2ccc(Cl)cc2F)c1 (single isomer, unassigned) [Example 696, 3-(3-(3-(4-Chloro-2-fluorophenyl)ureido)-4-((cyclopropylmethyl)(tetrahydro-2H-pyran-4-yl)amino)phenyl)pentanoic acid]",< 5
26,"CCC(CC(=O)O)c1cc(NC(=O)Nc2ccc3c(c2)OCO3)c(N(CC(C)C)CC(C)C)cc1F (racemic) [Example 1134, (±)-3-(5-(3-(Benzo[d][1,3]dioxol-5-yl)ureido)-4-(diisobutylamino)-2-fluorophenyl)pentanoic acid]",< 5
27,"CCN(c1ccc([C@@H](COC)CC(=O)O)cc1NC(=O)Nc1ccc(OC(F)F)cc1)C1CCOCC1 (single isomer, unassigned) [Example 425]",> 50
28,"CCC(CC(=O)O)c1ccc(N2CCC[C@H]2C(C)(C)O)c(Nc2ccc3c(c2)OC(F)(F)O3)c1 (single isomer, unassigned) [Example 837]",> 50
29,"CCOc1ncc(Nc2cc(C(CC)CC(=O)O)cc(F)c2N(CC(C)C)CC(C)C)cn1 (single isomer, unassigned) [Example 103, 3-(4-(diisobutylamino)-3-((2-ethoxypyrimidin-5-yl)amino)-5-fluorophenyl)pentanoic acid]",< 5
